The values below come from the SangsterLogP compilation.

The first data set is described as follows: method code SF-HPLC, from DOI: 10.1248/cpb.33.2403, PMID: 4064199.
The term logP denotes the decadic logarithm of the partition coefficient of the neutral form, usually between octanol and water. In the case of `CCC(CC)COC(=O)N(CC)CC`, the logP worked out at 3.6.

Compound `CC(Cc1ccccc1)OC(=O)N(C)C` (stereo unspecified) returned a logP of 2.6.

The next data set is described as follows: method code SF-GLC, from DOI: 10.1248/cpb.33.2403, PMID: 4064199.
Consider `CC(C)COC(N)=O`, for which the logP was determined as 0.98.

Regarding `CC(C)COC(=O)N(C)C`, the logP was 2.

Another data set can be described thus: method code SF-AS, from DOI: 10.1248/cpb.33.2403, PMID: 4064199.
In the case of `CN(C)C(=O)OCCc1ccccc1`, the logP worked out at 2.4.

Consider `NC(=O)OCCc1ccccc1`, for which the logP is 1.5.

`CCN(CC)C(=O)OCCc1ccccc1` had a logP of 3.2.

Turning to `CCN(CC)C(=O)OCC(C)C`, the logP came to 2.82.

`NC(=O)OCCc1c[nH]c2ccccc12` had a logP of 1.69.

`NC(=O)OCCCc1cccnc1` showed a logP of 0.46.

In the case of `NC(=O)OCc1ccc(Cl)cc1`, the logP amounted to 1.97.

For `CCC(CC)COC(N)=O`, the logP is 1.98.

Turning to `CCN(CC)C(=O)OCCc1c[nH]c2ccccc12`, the logP came out at 3.3.

Compound `CNC(=O)OCc1ccccc1` showed a logP of 1.68.

`CCN(CC)C(=O)OCc1ccccc1` returned a logP of 2.93.

Regarding `NC(=O)OCCCc1ccccc1`, the logP worked out at 1.96.

The compound `CCC(CC)COC(=O)N(C)C` registered a logP of 2.87.

As for `CN(C)C(=O)OCCCc1ccccc1`, the logP was 2.93.

Compound `CC(C)OC(=O)N(C)C` came in with a logP of 1.38.

Turning to `CN(C)C(=O)OCCCc1cccnc1`, the logP is 1.44.

Consider `CN(C)C(=O)OCCc1c[nH]c2ccccc12`, for which the logP came to 2.54.
